Measurements published in patent US20240368664A1, “LIVE YEAST BIOSENSORS AND METHODS OF USE THEREOF” (priority 2021, published 2024).
Where “and” joins values, the source holds several entries; their conditions need not be identical. Equal values may be shown once. No end group written: not given here.

Assays:
[1] = biological target: T1, Saccharomyces cerevisiae pheromone GPCR ScSte2 (Saccharomyces cerevisiae) (UniProt D6VTK4); assay: cell-based or functional assay
T1 sequence: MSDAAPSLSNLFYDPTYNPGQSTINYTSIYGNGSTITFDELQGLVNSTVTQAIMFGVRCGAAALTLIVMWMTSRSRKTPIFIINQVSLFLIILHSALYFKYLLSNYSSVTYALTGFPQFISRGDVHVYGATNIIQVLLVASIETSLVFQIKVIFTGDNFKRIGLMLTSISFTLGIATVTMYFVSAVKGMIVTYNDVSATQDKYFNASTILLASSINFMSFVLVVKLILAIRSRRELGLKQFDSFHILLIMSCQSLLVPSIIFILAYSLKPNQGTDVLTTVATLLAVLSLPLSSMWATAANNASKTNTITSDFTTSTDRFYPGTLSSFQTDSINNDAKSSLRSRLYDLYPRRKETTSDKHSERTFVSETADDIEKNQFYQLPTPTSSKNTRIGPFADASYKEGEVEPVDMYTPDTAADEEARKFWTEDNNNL

[2] = biological target: ScSte2 with protease ScBar1 (Saccharomyces cerevisiae, UniProt D6VTK4); type: cell-based
Sequence of ScSte2 with protease ScBar1 (D6VTK4 whole entry): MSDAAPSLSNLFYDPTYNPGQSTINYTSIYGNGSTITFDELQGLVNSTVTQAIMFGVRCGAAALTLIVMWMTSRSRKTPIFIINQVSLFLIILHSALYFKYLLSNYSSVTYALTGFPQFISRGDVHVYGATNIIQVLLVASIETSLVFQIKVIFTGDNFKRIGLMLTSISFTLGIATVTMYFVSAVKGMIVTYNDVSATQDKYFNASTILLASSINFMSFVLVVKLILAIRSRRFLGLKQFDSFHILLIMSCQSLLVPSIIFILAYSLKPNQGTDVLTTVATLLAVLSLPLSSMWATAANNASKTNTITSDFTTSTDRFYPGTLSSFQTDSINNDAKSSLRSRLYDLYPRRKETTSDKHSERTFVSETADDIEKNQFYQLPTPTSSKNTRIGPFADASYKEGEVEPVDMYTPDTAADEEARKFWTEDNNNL

ScSte2 = ScSte2 (Saccharomyces cerevisiae, UniProt D6VTK4); assay: ScSte2 biosensor dose-response, ymTurquoise2 readout, no protease (incl. ScPep alanine scan, yTC391); type: cell-based; conditions: Hill function best-fit ± standard error
Sequence of ScSte2 (D6VTK4 whole entry): as above

[3] = biological target: T2, A. fumigatus pheromone GPCR (AfuSte2) (Aspergillus fumigatus); assay: cell-based or functional assay
T2 sequence: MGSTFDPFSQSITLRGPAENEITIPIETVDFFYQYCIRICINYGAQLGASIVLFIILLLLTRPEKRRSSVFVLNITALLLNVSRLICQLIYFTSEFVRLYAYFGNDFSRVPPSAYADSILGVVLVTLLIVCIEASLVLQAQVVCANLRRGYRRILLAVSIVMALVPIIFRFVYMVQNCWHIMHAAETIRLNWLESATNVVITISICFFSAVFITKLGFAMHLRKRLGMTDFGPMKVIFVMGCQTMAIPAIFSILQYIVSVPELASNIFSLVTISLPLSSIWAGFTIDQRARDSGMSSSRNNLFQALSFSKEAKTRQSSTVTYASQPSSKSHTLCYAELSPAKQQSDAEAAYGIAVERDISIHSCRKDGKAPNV

Substance | Top [1] | Bottom [2] | Hill Slope [2] | LogEC50 [2] | Top [2] | Hill Slope (ScSte2) | further results
ScPep1A (peptide) | 320 A.U. and 350 A.U. |  |  |  |  |  | 
ScPep2A (peptide) | 270 A.U. and 350 A.U. |  |  |  |  |  | 
ScPep3A (peptide) | 280 A.U. and 370 A.U. |  |  |  |  |  | 
ScPep4A (peptide) | 250 A.U. and 340 A.U. |  |  |  |  |  | 
ScPep5A (peptide) | 380 A.U. and 340 A.U. |  |  |  |  |  | 
ScPep6A (peptide) | 310 A.U. and 390 A.U. |  |  |  |  |  | 
ScPep7A (peptide) | 400 A.U. and 380 A.U. |  |  |  |  |  | 
ScPep8A (peptide) | 430 A.U. and 440 A.U. |  |  |  |  |  | 
ScPep9A (peptide) | 370 A.U. and 440 A.U. |  |  |  |  |  | 
ScPep10A (peptide) | 380 A.U. and 420 A.U. |  |  |  |  |  | 
ScPep11A (peptide) | 410 A.U. |  |  |  |  |  | 
ScPep12A (peptide) | 410 A.U. and 450 A.U. |  |  |  |  |  | 
ScPep13A (peptide) | 360 A.U. and 490 A.U. |  |  |  |  |  | 
Scα-Smt3 (α-factor fused to the N-terminus of full-length Smt3, 6x-His-tag at the opposite terminus) (from UniProt Q12306 2-98) |  |  |  |  |  |  | EC50 (mCherry/OD600) [1]: 149 nM
Smt3-Scα (α-factor fused to the C-terminus of full-length Smt3, 6x-His-tag at the opposite terminus) (from UniProt Q12306 1-98) |  |  |  |  |  |  | EC50 (mCherry/OD600) [1]: 208 nM
Smt3-Scα-Smt3 (two Smt3 fused in tandem with an α-factor linker, N-terminus 6x-His-tag) (from UniProt Q12306 1-98; Q12306 2-98) |  |  |  |  |  |  | EC50 (mCherry/OD600) [1]: 1080 nM
WAWLQLKPGQPMY [ScPep2A] |  | 5.9 ± 3.0 A.U. | 1.5 ± 0.1 | −5.0 ± 0.1 M | 350 ± 10 A.U. | 3.7 ± 0.2 | 
WHALQLKPGQPMY [ScPep3A] |  | 6.4 ± 2.6 A.U. | 0.74 ± 0.05 | −4.6 ± 0.1 M | 370 ± 20 A.U. | 2.5 ± 0.1 | 
WHWAQLKPGQPMY [ScPep4A] |  | −1.6 ± 2.9 A.U. | 0.72 ± 0.04 | −5.4 ± 0.1 M | 340 ± 10 A.U. |  | 
WHWLALKPGQPMY [ScPep5A] |  | 0.52 ± 8.7 A.U. | 1.2 ± 0.2 | −6.3 ± 0.1 M | 340 ± 10 A.U. | 3.4 ± 0.3 | 
WHWLQAKPGQPMY [ScPep6A] |  | 0.38 ± 5.71 A.U. | 0.99 ± 0.10 | −5.5 ± 0.1 M | 390 ± 10 A.U. | 5.6 ± 0.7 | 
WHWLQLAPGQPMY [ScPep7A] |  | 5.7 ± 1.3 A.U. | 1.7 ± 0.1 | −5.4 ± 0.1 M | 380 ± 10 A.U. | 2.6 ± 0.4 | 
WHWLQLKAGQPMY [ScPep8A] |  | 4.6 ± 2.6 A.U. | 1.1 ± 0.1 | −5.6 ± 0.1 M | 440 ± 10 A.U. | 2.7 ± 0.1 | 
WHWLQLKPAQPMY [ScPep9A] |  | 3.7 ± 2.1 A.U. | 1.2 ± 0.1 | −4.8 ± 0.2 M | 440 ± 10 A.U. | 5.0 ± 1.3 | 
WHWLQLKPGAPMY [ScPep10A] |  | 8.3 ± 1.6 A.U. | 1.8 ± 0.1 | −5.2 ± 0.1 M | 420 ± 10 A.U. | 5.3 ± 3.7 | 
WHWLQLKPGQAMY [ScPep11A] |  | 8.0 ± 2.5 A.U. | 1.5 ± 0.1 | −5.6 ± 0.1 M | 410 ± 10 A.U. | 4.6 ± 1.3 | 
WHWLQLKPGQPAY [ScPep12A] |  | 2.5 ± 2.9 A.U. | 1.3 ± 0.1 | −6.0 ± 0.1 M | 450 ± 10 A.U. |  | 
WHWLQLKPGQPMA [ScPep13A] |  | 4.6 ± 2.5 A.U. | 1.2 ± 0.1 | −5.1 ± 0.1 M | 490 ± 10 A.U. | 8.2 ± 3.1 | 
synthetic A. fumigatus pheromone peptide (AfuPep) |  |  |  |  |  |  | EC50, GFP of the sender strain [3]: 4 nM; EC50, mCherry reporter in yeast [3]: 100 nM; EC50, mCherry, fine-tuned optimized strain [3]: 40 nM; EC50, mCherry, strain with natural signaling pathway [3]: 10 nM; LoD, lycopene readout, yTC590 [3]: 50 nM; activation fold change, fine-tuned optimized strain [3]: 2900 fold; activation fold change, strain with natural signaling pathway [3]: 19 fold; fold change of fluorescence readout [3]: 4000 fold; limit of detection (LoD), lycopene readout, yTC527 [3]: 30 nM; maximal activation, mCherry, fine-tuned optimized strain [3]: 2900 A.U.; maximal activation, mCherry, strain with natural signaling pathway (yMJ194) [3]: 450 A.U.
